These results are taken from patent publication US12276654B2, “Chemical probe-dependent evaluation of protein activity and uses thereof” (The University of Chicago, priority 2017, dated 2025).

Like-named read-outs stand apart in the source and are kept apart here.

What is called IC50 is the midpoint of a concentration-inhibition curve.

Experiment [1] addresses T1, NCEH1 (Homo sapiens, UniProt Q6PIU2).
T1 sequence (Q6PIU2 1-408): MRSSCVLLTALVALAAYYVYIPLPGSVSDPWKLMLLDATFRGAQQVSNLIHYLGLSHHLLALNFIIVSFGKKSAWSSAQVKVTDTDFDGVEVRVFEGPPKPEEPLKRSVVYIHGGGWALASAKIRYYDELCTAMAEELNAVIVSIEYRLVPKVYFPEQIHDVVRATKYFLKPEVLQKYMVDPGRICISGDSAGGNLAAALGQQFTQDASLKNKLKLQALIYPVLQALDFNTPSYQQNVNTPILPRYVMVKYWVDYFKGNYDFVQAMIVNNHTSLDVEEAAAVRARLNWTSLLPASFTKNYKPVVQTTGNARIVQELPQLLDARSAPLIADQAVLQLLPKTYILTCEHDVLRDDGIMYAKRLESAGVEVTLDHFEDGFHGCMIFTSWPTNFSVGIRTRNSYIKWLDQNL
Also on record: endogenous NCEH1 activity in SKOV3 cells; endogenous in cells; host or cells: SKOV3; wild-type PC3; PAFAH2-expressing PC3. The note with it: previously reported; PC3 cells; read-out: IC50 for NCEH1 previously reported by gel-based profiling; cited from earlier work.

Experiment [2] concerns the target T1, NCEH1. The experiment is described as follows: sADPL in situ target engagement in cancer cells, NCEH1. Type of experiment: cell-based. Also on record: endogenous NCEH1 activity in SKOV3 cells; endogenous in cells; host or cells: SKOV3; wild-type PC3; PAFAH2-expressing PC3. The conditions noted are these: inhibitor prior to family-wide probe. The procedure:
FIG. 23. In situ Target Engagement. Cancer cells were treated with DMSO as the control, with inhibitor prior to family wide probe to pre-block the active site, or with family-wide probe directly. Then sADPL workflow was applied to read out the CT difference. Serine hydrolase NCEH1 and its specific inhibitor JW480, or FAAH and inhibitor PF3845 were applied. The activity fold change was transformed from CT value with PCR amplification factor 1.91 determined by a standard qPCR curve and the activities were normalized to DMSO control at different cell lysate concentrations. […] To quantitatively measure the target engagement, different dose of JW480 was applied to either its target NCEH1, or off-target MGLL.
As another alternative detection method, sADPL is complementary with gel-based and MS-based detection methods. In this design, the inventors treat the live cell with several family-wide probes. The probes will label all the members of the protein families. Then one could get the labeled proteome after the cell lysis. […]
A summary of this assay is provided below: • 1. […] In the oligo design, the orthogonal forward primers were employed for different antibody to enable the multiplexing real time PCR readout. […]
Two amine modified oligos were conjugated to antibody and streptavidin, respectively. […] A Taqman probe was designed for real time PCR quantification. […]

Consider `CC(C)c1ccccc1OC(=O)NCCc1ccc2ccccc2c1` [JW480], for which the 50% inhibitory concentration (IC50) is 12 nM in experiment [1] and 17.8 nM in experiment [2] (cancer cells treated in situ, read-out: apparent IC50, dose-dependent inhibition of NCEH1 by sADPL). In addition, in experiment [2] (cancer cells), the “NCEH1 activity in inhibitor competition group by sADPL, normalized to DMSO control” value is listed as “bring the activities down to the levels of DMSO controls”.
